Experimental data published in article PMC11033320, “Activation of p53 signaling and regression of breast and prostate carcinoma cells by spirooxindole-benzimidazole small molecules” (Frontiers in Pharmacology, 2024).

Experiments:
[1] = tested on: MDA-MB-435; assay: NCI anticancer screening, Melanoma MDA-MB-435; format: cell-based; conditions: Homo sapiens; MDA-MB-435, 10 μM; read-out: % Growth Inhibition (GI %)
Outline: (§1)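 DTP standard method; NCI-60 human tumour cell line panel, organic-compound protocol.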

[2] = tested on: SF-268; assay: NCI anticancer screening, CNS Cancer SF-268; format: cell-based; conditions: Homo sapiens; SF-268, 10 μM; read-out: % Growth Inhibition (GI %)
Outline: as §1

[3] = tested on: CCRF-CEM; assay: NCI anticancer screening, Leukemia CCRF-CEM; format: cell-based; conditions: Homo sapiens, read-out: % Growth Inhibition (GI %)
Outline: as §1

[4] = tested on: BT-549; assay: NCI anticancer screening, Breast Cancer BT-549; format: cell-based; conditions: Homo sapiens; BT-549, 10 μM; read-out: % Growth Inhibition (GI %)
Outline: as §1

[5] = tested on: SNB-19; assay: NCI anticancer screening, CNS Cancer SNB-19; format: cell-based; conditions: Homo sapiens; SNB-19, 10 μM; read-out: % Growth Inhibition (GI %)
Outline: as §1

[6] = tested on: EKVX; assay: NCI anticancer screening, Non-Small Cell Lung Cancer EKVX; format: cell-based; conditions: Homo sapiens, read-out: % Growth Inhibition (GI %)
Outline: as §1

[7] = tested on: RXF 393; assay: NCI anticancer screening, Renal Cancer RXF 393; format: cell-based; conditions: Homo sapiens; RXF 393, 10 μM; read-out: % Growth Inhibition (GI %)
Outline: as §1

[8] = tested on: HOP-62; assay: NCI anticancer screening, Non-Small Cell Lung Cancer HOP-62; format: cell-based; conditions: Homo sapiens; HOP-62, 10 μM; read-out: % Growth Inhibition (GI %)
Outline: as §1

[9] = tested on: NCI/ADR-RES; assay: NCI anticancer screening, Ovarian Cancer NCI/ADR-RES; format: cell-based; conditions: Homo sapiens, read-out: % Growth Inhibition (GI %)
Outline: as §1

[10] = tested on: SNB-75; assay: NCI anticancer screening, CNS Cancer SNB-75; format: cell-based; conditions: Homo sapiens; SNB-75, 10 μM; read-out: % Growth Inhibition (GI %)
Outline: as §1

[11] = tested on: MOLT-4; assay: NCI anticancer screening, Leukemia MOLT-4; format: cell-based; conditions: Homo sapiens; MOLT-4, 10 μM; read-out: % Growth Inhibition (GI %)
Outline: as §1

[12] = tested on: MALME-3M; assay: NCI anticancer screening, Melanoma MALME-3M; format: cell-based; conditions: Homo sapiens, read-out: % Growth Inhibition (GI %)
Outline: as §1

[13] = tested on: OVCAR-8; assay: NCI anticancer screening, Ovarian Cancer OVCAR-8; format: cell-based; conditions: Homo sapiens; OVCAR-8, 10 μM; read-out: % Growth Inhibition (GI %)
Outline: as §1

[14] = tested on: RPMI-8226; assay: NCI anticancer screening, Leukemia RPMI-8226; format: cell-based; conditions: Homo sapiens; RPMI-8226, 10 μM; read-out: % Growth Inhibition (GI %)
Outline: as §1

[15] = tested on: HOP-92; assay: NCI anticancer screening, Non-Small Cell Lung Cancer HOP-92; format: cell-based; conditions: Homo sapiens; HOP-92, 10 μM; read-out: % Growth Inhibition (GI %)
Outline: as §1

[16] = tested on: SK-MEL-2; assay: NCI anticancer screening, Melanoma SK-MEL-2; format: cell-based; conditions: Homo sapiens; SK-MEL-2, 10 μM; read-out: % Growth Inhibition (GI %)
Outline: as §1

[17] = tested on: MDA-MB 231 cells; conditions: for inhibition: 5 µM
[18] = tested on: TK-10; assay: NCI anticancer screening, Renal Cancer TK-10; format: cell-based; conditions: Homo sapiens; TK-10, 10 μM; read-out: % Growth Inhibition (GI %)
Outline: as §1

[19] = tested on: CAKI-1; assay: NCI anticancer screening, Renal Cancer CAKI-1; format: cell-based; conditions: Homo sapiens; CAKI-1, 10 μM; read-out: % Growth Inhibition (GI %)
Outline: as §1

[20] = tested on: PC-3 cells; assay: MTT assay anticancer activity, PC-3; format: cell-based; conditions: Homo sapiens, PC-3, 5 µM, mean ± SEM, read-out: growth inhibition percentage of PC-3
Excerpt: MTT method was done as described above.

[21] = tested on: SR; assay: NCI anticancer screening, Leukemia SR; format: cell-based; conditions: Homo sapiens, read-out: % Growth Inhibition (GI %)
Outline: as §1

[22] = tested on: DU-145; assay: NCI anticancer screening, DU-145; format: cell-based; conditions: Homo sapiens; DU-145, 10 μM; read-out: % Growth Inhibition (GI %)
Outline: as §1

[23] = tested on: 786-0; assay: NCI anticancer screening, Renal Cancer 786-0; format: cell-based; conditions: Homo sapiens; 786-0, 10 μM; read-out: % Growth Inhibition (GI %)
Outline: as §1

[24] = tested on: K-562; assay: NCI anticancer screening, Leukemia K-562; format: cell-based; conditions: Homo sapiens, K562; K-562, 10 μM; read-out: % Growth Inhibition (GI %)
Outline: as §1

[25] = tested on: UO-31; assay: NCI anticancer screening, Renal Cancer UO-31; format: cell-based; conditions: Homo sapiens; UO-31, 10 μM; read-out: % Growth Inhibition (GI %)
Outline: as §1

[26] = tested on: OVCAR-4; assay: NCI anticancer screening, Ovarian Cancer OVCAR-4; format: cell-based; conditions: Homo sapiens; OVCAR-4, 10 μM; read-out: % Growth Inhibition (GI %)
Outline: as §1

[27] = tested on: SK-MEL-28; assay: NCI anticancer screening, Melanoma SK-MEL-28; format: cell-based; conditions: Homo sapiens; SK-MEL-28, 10 μM; read-out: % Growth Inhibition (GI %)
Outline: as §1

[28] = tested on: NCI-H460; assay: NCI anticancer screening, Non-Small Cell Lung Cancer NCI-H460; format: cell-based; conditions: Homo sapiens; NCI-H460, 10 μM; read-out: % Growth Inhibition (GI %)
Outline: as §1

[29] = tested on: M14; assay: NCI anticancer screening, Melanoma M14; format: cell-based; conditions: Homo sapiens; M14, 10 μM; read-out: % Growth Inhibition (GI %)
Outline: as §1

[30] = tested on: SW-620; assay: NCI anticancer screening, Colon Cancer SW-620; format: cell-based; conditions: Homo sapiens; SW-620, 10 μM; read-out: % Growth Inhibition (GI %)
Outline: as §1

[31] = tested on: ACHN; assay: NCI anticancer screening, Renal Cancer ACHN; format: cell-based; conditions: Homo sapiens, read-out: % Growth Inhibition (GI %)
Outline: as §1

[32] = tested on: HCC-2998; assay: NCI anticancer screening, Colon Cancer HCC-2998; format: cell-based; conditions: Homo sapiens; HCC-2998, 10 μM; read-out: % Growth Inhibition (GI %)
Outline: as §1

[33] = tested on: IGROV1; assay: NCI anticancer screening, Ovarian Cancer IGROV1; format: cell-based; conditions: Homo sapiens, IGROV-1; IGROV1, 10 μM; read-out: % Growth Inhibition (GI %)
Outline: as §1

[34] = tested on: OVCAR-5; assay: NCI anticancer screening, Ovarian Cancer OVCAR-5; format: cell-based; conditions: Homo sapiens; OVCAR-5, 10 μM; read-out: % Growth Inhibition (GI %)
Outline: as §1

[35] = tested on: UACC-257; assay: NCI anticancer screening, Melanoma UACC-257; format: cell-based; conditions: Homo sapiens; UACC-257, 10 μM; read-out: % Growth Inhibition (GI %)
Outline: as §1

[36] = tested on: HCT-116; assay: NCI anticancer screening, Colon Cancer HCT-116; format: cell-based; conditions: Homo sapiens; HCT-116, 10 μM; read-out: % Growth Inhibition (GI %)
Outline: as §1

SMILES	inhibition at 10 µM [1]	inhibition at 10 µM [2]	inhibition at 10 µM [3]	inhibition at 10 µM [4]	inhibition at 10 µM [5]	inhibition at 10 µM [6]	inhibition at 10 µM [7]	inhibition at 10 µM [8]	inhibition at 10 µM [9]	inhibition at 10 µM [10]	inhibition at 10 µM [11]	inhibition at 10 µM [12]	inhibition at 10 µM [13]	inhibition at 10 µM [14]	inhibition at 10 µM [15]	inhibition at 10 µM [16]	IC50 [17]	inhibition [17]	inhibition at 10 µM [18]	inhibition at 10 µM [19]	further results
O=C(c1nc2ccccc2[nH]1)[C@H]1[C@H](c2ccccc2O)C2CSCN2[C@]12C(=O)Nc1ccccc12 (stereo partly drawn) [Compound 6j, (3S,6′R)-6'-(1H-Benzo [d]imidazole-2-carbonyl)-7'-(2-hydroxyphenyl)-3′,6′,7′,7a′-tetrahydro-1′H-spiro [indoline-3.5′-pyrrolo [1,2-c]thiazol]-2-one]	92.7%	91.7%	101%	93.6%	93.7%	91.6%	88.2%	85.2%	95.9%	73.1%	89.5%	105%	97.7%	104%	97.3%	104%	4.665 ± 0.009 µM	40.8 ± 1.63%	115%	84%	inhibition at 5 µM [20]: 40.3 ± 3.44%; inhibition at 10 µM [21]: 94%; inhibition at 10 µM [22]: 98.7%; inhibition at 10 µM [23]: 106%; inhibition at 10 µM [24]: 96.4%; inhibition at 10 µM [25]: 73.9%; inhibition at 10 µM [26]: 86.5%; inhibition at 10 µM [27]: 99%; inhibition at 10 µM [28]: 97.4%; inhibition at 10 µM [29]: 95.1%; inhibition at 10 µM [30]: 95.4%; inhibition at 10 µM [31]: 92.2%; inhibition at 10 µM [32]: 103%; inhibition at 10 µM [33]: 92.1%; inhibition at 10 µM [34]: 102%; inhibition at 10 µM [35]: 95.6%; inhibition at 10 µM [36]: 96.3%
O=C(c1nc2ccccc2[nH]1)[C@H]1[C@H](c2cccs2)C2CSCN2[C@]12C(=O)Nc1ccccc12 (stereo partly drawn) [Compound 6e, (3S,6′R)-6'-(1H-Benzo [d]imidazole-2-carbonyl)-7'-(thiophen-2-yl)-3′,6′,7′,7a′-tetrahydro-1′H-spiro [indoline-3.5′-pyrrolo [1,2-c]thiazol]-2-one]	100%	92.4%	104%	94.1%	104%	100%	112%	99.5%	102%	85.9%	96.1%	101%	96.8%	101%	105%	111%	5.61 µM	58.2 ± 1.85%	106%	89.6%	inhibition at 5 µM [20]: 58.2 ± 0.729%; inhibition at 10 µM [21]: 101%; inhibition at 10 µM [22]: 109%; inhibition at 10 µM [23]: 100%; inhibition at 10 µM [24]: 100%; inhibition at 10 µM [25]: 76%; inhibition at 10 µM [26]: 93.9%; inhibition at 10 µM [27]: 105%; inhibition at 10 µM [28]: 101%; inhibition at 10 µM [29]: 100%; inhibition at 10 µM [30]: 96.7%; inhibition at 10 µM [31]: 103%; inhibition at 10 µM [32]: 108%; inhibition at 10 µM [33]: 89.7%; inhibition at 10 µM [34]: 96.2%; inhibition at 10 µM [35]: 93.4%; inhibition at 10 µM [36]: 96.3%
